Article PMC8880783, “Structure and electron transfer pathways of an electron-bifurcating NiFe-hydrogenase” (Science Advances, 2022)
Values belong to the compound of their own block, whether it stands above or below them.

Columns and labels:
NiFe-HydABCSL [1] = target: T1, NiFe-HydABCSL (Acetomicrobium mobile, UniProt I4BYB5); assay: H2-dependent bifurcation assay, Fd reduction at […] nm; format: biochemical; details: 100% H2, 40 µM A. mobile Fd, 1 mM NAD, enzyme retains about 0.35 FMN per mole
T1 construct: gene Anamo_1678; native purification from A. mobile, untagged; dimer of heteropentamers (~500 kDa by SEC; 233 kDa per pentamer); with Electron-bifurcating NiFe-hydrogenase subunit HydA; Electron-bifurcating NiFe-hydrogenase subunit HydC (NADH:ubiquinone oxidoreductase 24 kD subunit); NiFe-hydrogenase small subunit HydS; NiFe-hydrogenase large subunit HydL

NiFe-HydABCSL [2] = target: T1, NiFe-HydABCSL; assay: cryo-EM structure of complex, […] Å; format: binding; details: 100 µM FMN with 100 µM NADH and 10 µM A. mobile Fd; site in HydB Rossmann fold, next to B1 [4Fe-4S] cluster; stacked on FMN in HydB; modelled as NAD(H)
NiFe-HydABCSL [3] = target: T1, NiFe-HydABCSL; assay: H2-dependent bifurcation assay, simultaneous Fd and NAD reduction; format: biochemical; details: 100% H2, 40 µM A. mobile Fd, 10 µM FMN, 1 mM NAD
[4] = target: A. mobile NiFe-HydABCSL hydrogenase (heteropentamer) (A. mobile (endogenous in A. mobile cells)); assay: SEC; HiLoad Superdex 200 prepgrade XK 16/60, 25 mM tris pH 8.0, 300 mM NaCl, 5% glycerol, 2.5% trehalose, anaerobic; decamer to pentamers
[5] = target: A. mobile NiFe-HydABCSL hydrogenase (heteropentamer) (A. mobile (endogenous in A. mobile cells)); assay: cryo-EM structure; single-particle cryo-EM of the enzyme as purified, flavin-free apo state, C2 symmetry, 3.2 Å

- % stimulation (NiFe-HydABCSL [1]; FAD concentration not given): ~ 10%
Compound: Cc1cc2nc3c(=O)[nH]c(=O)nc-3n(C[C@H](O)[C@H](O)[C@H](O)COP(=O)(O)OP(=O)(O)OC[C@H]3O[C@@H](n4cnc5c(N)ncnc54)[C@H](O)[C@@H]3O)c2cc1C [FAD]

- % stimulation (NiFe-HydABCSL [1]; 10 µM FMN): ~ 35%
Compound: Cc1cc2nc3c(=O)[nH]c(=O)nc-3n(C[C@H](O)[C@H](O)[C@H](O)COP(=O)(O)O)c2cc1C [FMN]

Compound: NC(=O)C1=CN([C@@H]2O[C@H](COP(=O)(O)OP(=O)(O)OC[C@H]3O[C@@H](n4cnc5c(N)ncnc54)[C@H](O)[C@@H]3O)[C@@H](O)[C@H]2O)C=CC1 [NADH]
- structure (NiFe-HydABCSL [2]): FMN and NADH had well-defined densities in HydB

Compound: NC(=O)c1ccc[n+]([C@@H]2O[C@H](COP(=O)(O)OP(=O)(O)OC[C@H]3O[C@@H](n4cnc5c(N)ncnc54)[C@H](O)[C@@H]3O)[C@@H](O)[C@H]2O)c1 [NAD]
- turnover (NiFe-HydABCSL [3]): NiFe-HydABCSL reduced the Fd only if NAD was also added

- stoichiometry N [4]: 2
- stoichiometry N [5]: 2
Compound: A. mobile NiFe-HydABCSL hydrogenase (heteropentamer) (complex)
